According to PMC2923778 (Journal of Molecular Biology, 2010):

Biological target: T1, hSPSB1 (Homo sapiens, UniProt Q96BD6)
T1 construct: hexahistidine (N, cleaved yes); made in house; host or cells: E. coli BL21(DE3)-R3-pRARE2
T1 sequence (Q96BD6 24-233): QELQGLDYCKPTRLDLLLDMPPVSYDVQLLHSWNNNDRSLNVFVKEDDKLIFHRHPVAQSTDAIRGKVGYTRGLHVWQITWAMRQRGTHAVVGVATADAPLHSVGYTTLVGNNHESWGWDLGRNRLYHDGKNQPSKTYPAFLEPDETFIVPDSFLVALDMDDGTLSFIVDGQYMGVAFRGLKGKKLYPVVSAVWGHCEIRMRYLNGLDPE
Assay: ITC of peptides with hSPSB1
Settings: 20 °C, 50 mM Hepes pH 7.4, 150 mM NaCl, 1 mM DTT, 100 μM peptide into 10 μM protein, ± error of curve fit, single binding site model
Procedure: Human SPSB constructs lacking the SOCS box region [hSPSB1(24–233), SWISS-PROT accession number Q96BD6; hSPSB2(26–219), Q99619 and hSPSB4(28–233), Q96A44] were cloned into pNIC28-Bsa4 by ligation-independent cloning. Constructs were transformed into BL21(DE3)-R3-pRARE2 and expressed overnight at 18 °C with 0.5 mM IPTG added at OD600 = 0.5–0.8. hSPSB proteins were purified using Ni-Sepharose (GE Healthcare, UK), eluted by imidazole and subsequently cleaved from the N-terminal hexahistidine tag by addition of tobacco etch virus protease (although hSPSB2 was resistant to cleavage). Further purification was achieved by size-exclusion chromatography and finally anion-exchange chromatography in the case of hSPSB1.
ITC measurements on mSPSB proteins were performed at 22 °C using a MicroCalorimetry System (MicroCal, Northhampton, MA). mSPSB1, mSPSB2, and mSPSB4 were prepared by dialyzing against 20 mM Tris, 150 mM sodium chloride, and 2.5 mM calcium chloride at pH 8.0. […] Dilution enthalpies were determined separately by titrating peptide into buffer and used to correct the enthalpies of the binding of protein and peptide. Data were analyzed using a single binding site model implemented in the Origin software package provided with the instrument.

Kd: 40 ± 5 nM
Structure (SMILES): CC[C@H](C)[C@H](NC(=O)[C@H](Cc1ccc(O)cc1)NC(=O)[C@H](Cc1ccccc1)NC(=O)[C@H](CCC(=O)O)NC(=O)[C@H](CCCNC(=N)N)NC(=O)[C@H](CCCCN)NC(=O)[C@H](CCCNC(=N)N)NC(=O)[C@H](CCC(=O)O)NC(=O)[C@@H](NC(=O)[C@H](CC(=O)O)NC(=O)[C@H](CCC(=O)O)NC(=O)[C@@H](NC(=O)[C@@H](NC(=O)[C@H](CC(N)=O)NC(=O)[C@H](CC(N)=O)NC(=O)[C@H](CC(N)=O)NC(=O)[C@H](CC(N)=O)NC(=O)[C@H](CC(N)=O)NC(=O)[C@@H](NC(=O)[C@@H](N)CC(=O)O)[C@@H](C)CC)[C@@H](C)CC)C(C)C)C(C)C)C(=O)O [VASA]
